Here are results for 18 compounds from patent publication US10738056B2 (Aduro BioTech, Inc., priority 2017, dated 2020).

The subject of assay [1] is MCP-1/CCL2 secretion by Trex1-KO BMM. Nature of the assay: Inhibition of MCP-1/CCL2 secretion by Trex1-KO bone marrow-derived macrophages. As to conditions: MCP-1 secretion; for IC50: Mus musculus, Macrophage, read-out: BMM IC50 M (MCP-1). The arrangement: key to BMM IC50 M (MCP-1): A: an IC50 value less than 5 μM; B: an IC50 value between 5 and 20 μM; where an IC50 value could not be calculated from the data. Type of assay: cell-based, mice. How it is done:
(§1) A cellular assay can be used to asses the compounds of the invention for their ability to inhibit cytokine production. Bone marrow macrophages harvested from mice can be used to determine response as a function of compound concentration.
(§2) The inhibition of secreted cytokine was measured in bone marrow-derived macrophages (BMMs) from diseased mice to evaluate the potency of compounds of the invention as described herein. […] To derive bone marrow macrophages, marrow extracted from the femurs and tibias were harvested from Trex1-KO mice was cultured in growth media supplemented with macrophage colony-stimulating factor (M-CSF). Differentiated BMM were harvested and frozen for subsequent experimentation. For treatment with compound C1089 (see Example 13), a frozen stock of Trex1-KO BMM was thawed and 1×10^5 cells were plated in 96 well format. BMMs were treated with a dilution series of C1089 and incubated overnight at 37° C. 5% CO2, at which point cellular supernatants were harvested and stored at −80° C. for subsequent analysis. The media used for this dilution series was without FBS. Remaining cells were evaluated for viability using Cell Titer Glo 2.0 kit according to the manufacturer instructions. BMM supernatants were evaluated for the secreted cytokine […] (RANTES/CCL5) or for secreted cytokine monocyte chemoattractant protein 1 (MCP-1/CCL2) using cytometric bead array mouse Flex Set kits (BD Biosciences). Cytokine concentration was calculated from a standard curve and normalized to vehicle (DMSO) treated cells.

Assay [2] deals with Human cGAS amino acids 155-522 (Homo sapiens (Human), UniProt Q8N884). Description: cGAS biochemical activity assay (ATP remaining, Kinase-Glo Max luminescence). To be noted: human cGAS 155-522, ATP remaining (Kinase-Glo Max); read-out: cGAS IC50.
Sequence of Human cGAS amino acids 155-522 (Q8N884 157-522): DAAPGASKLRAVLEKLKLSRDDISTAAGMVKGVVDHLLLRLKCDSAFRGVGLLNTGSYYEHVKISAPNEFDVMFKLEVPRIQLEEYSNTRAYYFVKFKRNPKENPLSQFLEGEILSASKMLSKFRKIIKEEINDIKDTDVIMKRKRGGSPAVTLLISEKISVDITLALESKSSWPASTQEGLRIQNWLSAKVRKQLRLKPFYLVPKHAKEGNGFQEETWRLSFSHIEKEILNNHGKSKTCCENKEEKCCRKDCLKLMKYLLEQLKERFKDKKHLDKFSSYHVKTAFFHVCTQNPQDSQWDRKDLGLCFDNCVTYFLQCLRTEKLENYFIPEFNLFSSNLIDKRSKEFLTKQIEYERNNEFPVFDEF
The test system of assay [3] is RANTES/CCL5 secretion by Trex1-KO BMM. Nature of the assay: Inhibition of RANTES/CCL5 secretion by Trex1-KO bone marrow-derived macrophages. Type of assay: cell-based, mice. The arrangement: key to BMM IC50 R (RANTES): A: an IC50 value less than 5 μM; B: an IC50 value between 5 and 20 μM; where an IC50 value could not be calculated from the data. To be noted: RANTES secretion; for IC50: Mus musculus, Macrophage, read-out: BMM IC50 R (RANTES). How it is done: as §1, §2

For assay [4], the system named is cGAS/STING pathway in THP1 cells. Nature of the assay: THP1 cell-based cGAS/STING pathway activity assay (IRF-3-linked luciferase reporter). As to conditions: Homo sapiens, THP-1. The method in brief: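 THP1 cells carrying an IRF-3-driven luciferase reporter were read across a range of compound concentrations, and IC50 values were derived from these concentration responses; the assay upper limit was 100 μM.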

Structures are written as SMILES.

With `COCc1[nH]c2c(-c3ccccc3)c(C#N)nn2c(=O)c1-c1nc2c(OC)cc(Cl)cc2o1` [Compound C1145, 6-(6-chloro-4-methoxybenzo[d]oxazol-2-yl)-5-(methoxymethyl)-7-oxo-3-phenyl-4,7-dihydropyrazolo[1,5-a]pyrimidine-2-carbonitrile], the “BMM IC50 M (MCP-1)” value in assay [1] is “C”. Further, the IC50 in assay [2] and in assay [4] was below 20 µM in each case. Further, in assay [3], the “BMM IC50 R (RANTES)” value is “C”.

For `COc1cc(C)cc2oc(-c3c(C)[nH]c4c(-c5ccccc5)c(C(F)(F)F)nn4c3=O)nc12` [Compound C1098, 6-(4-methoxy-6-methylbenzo[d]oxazol-2-yl)-5-methyl-3-phenyl-2-(trifluoromethyl)pyrazolo[1,5-a]pyrimidin-7(4H)-one], the IC50 in assay [1] is 5 to 20 µM; in assay [2] it was below 20 µM; in assay [3] it was below 5 µM; in assay [4] it was below 20 µM.

For `Cc1[nH]c2c(-c3ccccc3)c(C(F)(F)F)nn2c(=O)c1-c1nc2c(O)cccc2o1` [Compound C1053, 6-(4-hydroxybenzo[d]oxazol-2-yl)-5-methyl-3-phenyl-2-(trifluoromethyl)pyrazolo[1,5-a]pyrimidin-7(4H)-one], the “BMM IC50 M (MCP-1)” value in assay [1] is listed as “C”. Besides, the IC50 in assay [2] is below 20 µM; in assay [4], 20 to 100 µM. For the same compound, in assay [3], the “BMM IC50 R (RANTES)” value was “C”.

Turning to `Cc1[nH]c2c(-c3ccccc3)c(C(F)(F)F)nn2c(=O)c1-c1nc(C(=O)O)c(C2CCCCC2)o1` [Compound C1169, 5-cyclohexyl-2-(5-methyl-7-oxo-3-phenyl-2-(trifluoromethyl)-4,7-dihydropyrazolo[1,5-a]pyrimidin-6-yl)oxazole-4-carboxylic acid], in assay [1], the “BMM IC50 M (MCP-1)” value is “C”. In addition, the IC50 was below 20 µM in assay [2] and 20 to 100 µM in assay [4]. Moreover, in assay [3], the “BMM IC50 R (RANTES)” value is given as “C”.

For `Cc1[nH]c2c(-c3ccccc3)c(C(F)(F)F)nn2c(=O)c1C(=O)Nc1cccc(OC2CCCC2)c1` [Compound A1082, N-(3-(cyclopentyloxy)phenyl)-5-methyl-7-oxo-3-phenyl-2-(trifluoromethyl)-4,7-dihydropyrazolo[1,5-a]pyrimidine-6-carboxamide], the “BMM IC50 M (MCP-1)” value in assay [1] was “C”. The IC50 in assay [2] and in assay [4] was below 20 µM throughout. Also, in assay [3], the “BMM IC50 R (RANTES)” value is reported as “C”.

In the case of `COc1cccc2oc(-c3c(COC4CCCCO4)[nH]c4c(-c5ccccc5)c(C(F)(F)F)nn4c3=O)nc12` (stereo not drawn) [Compound C1134, 6-(4-methoxybenzo[d]oxazol-2-yl)-3-phenyl-5-(((tetrahydro-2H-pyran-2-yl)oxy)methyl)-2-(trifluoromethyl)pyrazolo[1,5-a]pyrimidin-7(4H)-one], the IC50 is 5 to 20 µM in assay [1], below 20 µM in assay [2] and below 20 µM in assay [4]. Also, the “BMM IC50 R (RANTES)” value in assay [3] was “C”.

Regarding `COc1cc(Cl)cc2oc(-c3c(C)[nH]c4c(-c5ccccc5)c(C#N)nn4c3=O)nc12` [Compound C1160, 6-(6-chloro-4-methoxybenzo[d]oxazol-2-yl)-5-methyl-7-oxo-3-phenyl-4,7-dihydropyrazolo[1,5-a]pyrimidine-2-carbonitrile], in assay [1], the “BMM IC50 M (MCP-1)” value is reported as “C”. Besides, the IC50 in assay [2] was below 20 µM; in assay [4], above 100 µM. Moreover, in assay [3], the “BMM IC50 R (RANTES)” value is reported as “C”.

Turning to `COc1cccc2oc(-c3c(SC)[nH]c4c(-c5ccccc5)c(C(F)(F)F)nn4c3=O)nc12` [Compound C1121, 6-(4-methoxybenzo[d]oxazol-2-yl)-5-(methylthio)-3-phenyl-2-(trifluoromethyl)pyrazolo[1,5-a]pyrimidin-7(4H)-one], the IC50 in assay [1] is below 5 µM; in assay [2], below 20 µM; in assay [4] it was below 20 µM. Also, the “BMM IC50 R (RANTES)” value in assay [3] is “C”.

Turning to `COc1ccc(C)c2oc(-c3c(C)[nH]c4c(-c5ccccc5)c(C(F)(F)F)nn4c3=O)nc12` [Compound C1092, 6-(4-methoxy-7-methylbenzo[d]oxazol-2-yl)-5-methyl-3-phenyl-2-(trifluoromethyl)pyrazolo[1,5-a]pyrimidin-7(4H)-one], in assay [1], the “BMM IC50 M (MCP-1)” value is recorded as “C”. Further, the IC50 in assay [2] was below 20 µM; in assay [4] it was above 100 µM. Moreover, the “BMM IC50 R (RANTES)” value in assay [3] was “C”.

For `COc1cccc2oc(-c3c(C)[nH]c4c(-c5cccc(F)c5)c(C(F)(F)F)nn4c3=O)nc12` [Compound C1114, 3-(3-fluorophenyl)-6-(4-methoxybenzo[d]oxazol-2-yl)-5-methyl-2-(trifluoromethyl)pyrazolo[1,5-a]pyrimidin-7(4H)-one], the values for the IC50 in assay [1], in assay [2] and in assay [4] were 5 to 20 µM, below 20 µM and below 20 µM, respectively. Besides, in assay [3], the “BMM IC50 R (RANTES)” value is “C”.

As to `COCc1[nH]c2c(-c3ccccc3)c(C(F)(F)F)nn2c(=O)c1-c1nnc(C2CCCC2)o1` [Compound D1018, 6-(5-cyclopentyl-1,3,4-oxadiazol-2-yl)-5-(methoxymethyl)-3-phenyl-2-(trifluoromethyl)pyrazolo[1,5-a]pyrimidin-7(4H)-one], in assay [1], the “BMM IC50 M (MCP-1)” value is recorded as “C”. Moreover, the IC50 in assay [2] is below 20 µM; in assay [4] it was 20 to 100 µM. The “BMM IC50 R (RANTES)” value in assay [3] is “C”.

Take `COc1c(C#N)ccc2oc(-c3c(C)[nH]c4c(-c5ccccc5)c(C(F)(F)F)nn4c3=O)nc12` [Compound C1126, 4-methoxy-2-(5-methyl-7-oxo-3-phenyl-2-(trifluoromethyl)-4,7-dihydropyrazolo[1,5-a]pyrimidin-6-yl)benzo[d]oxazole-5-carbonitrile]: in assay [1], the “BMM IC50 M (MCP-1)” value was “C”. For the same compound, the results for the IC50 in assay [2] and in assay [4] were below 20 µM and 20 to 100 µM, respectively. Further, the “BMM IC50 R (RANTES)” value in assay [3] is “C”.

As to `COCc1[nH]c2c(-c3ccccc3)c(C#N)nn2c(=O)c1-c1nc2c(OC)cccc2o1` [Compound C1139, 6-(4-methoxybenzo[d]oxazol-2-yl)-5-(methoxymethyl)-7-oxo-3-phenyl-4,7-dihydropyrazolo[1,5-a]pyrimidine-2-carbonitrile], the IC50 is 5 to 20 µM in assay [1], below 20 µM in assay [2], 5 to 20 µM in assay [3] and below 20 µM in assay [4].

For the compound `COc1cccc2oc(-c3c(Cl)[nH]c4c(-c5ccccc5)c(C(F)(F)F)nn4c3=O)nc12` [Compound C1071, 5-chloro-6-(4-methoxybenzo[d]oxazol-2-yl)-3-phenyl-2-(trifluoromethyl)pyrazolo[1,5-a]pyrimidin-7(4H)-one], in assay [1], the “BMM IC50 M (MCP-1)” value was “C”. Besides, the IC50 in assay [2] and in assay [4] was below 20 µM in each case. Further, the “BMM IC50 R (RANTES)” value in assay [3] is recorded as “C”.

As for `COc1cccc2oc(-c3c(COCc4ccccc4)[nH]c4c(-c5ccccc5)c(C(F)(F)F)nn4c3=O)nc12` [Compound C1099, 5-((benzyloxy)methyl)-6-(4-methoxybenzo[d]oxazol-2-yl)-3-phenyl-2-(trifluoromethyl)pyrazolo[1,5-a]pyrimidin-7(4H)-one], the “BMM IC50 M (MCP-1)” value in assay [1] is on record as “C”. Also, the IC50 in assay [2] and in assay [4] was below 20 µM in each case. Also, the “BMM IC50 R (RANTES)” value in assay [3] was “C”.

In the case of `COc1cccc2oc(-c3c(C)[nH]c4c(-c5cc(F)cc(F)c5)c(C(F)(F)F)nn4c3=O)nc12` [Compound C1119, 3-(3,5-difluorophenyl)-6-(4-methoxybenzo[d]oxazol-2-yl)-5-methyl-2-(trifluoromethyl)pyrazolo[1,5-a]pyrimidin-7(4H)-one], in assay [1], the “BMM IC50 M (MCP-1)” value is recorded as “C”. Moreover, the IC50 in assay [2] and in assay [4] was below 20 µM throughout. Besides, the “BMM IC50 R (RANTES)” value in assay [3] is recorded as “C”.

On to `Cc1[nH]c2c(-c3ccccc3)c(C(F)(F)F)nn2c(=O)c1-c1nnc(C#N)o1` [Compound D1071, 5-(5-methyl-7-oxo-3-phenyl-2-(trifluoromethyl)-4,7-dihydropyrazolo[1,5-a]pyrimidin-6-yl)-1,3,4-oxadiazole-2-carbonitrile], for which the IC50 in assay [1] was 5 to 20 µM; in assay [2], below 20 µM; in assay [3], below 5 µM; in assay [4], below 20 µM.

As for `COc1ccc(Cl)c2oc(-c3c(C)[nH]c4c(-c5ccccc5)c(C#N)nn4c3=O)nc12` [Compound C1205, 6-(7-chloro-4-methoxybenzo[d]oxazol-2-yl)-5-methyl-7-oxo-3-phenyl-4,7-dihydropyrazolo[1,5-a]pyrimidine-2-carbonitrile], the “BMM IC50 M (MCP-1)” value in assay [1] is “C”. Besides, the IC50 in assay [2] is below 20 µM; in assay [4], above 100 µM. Moreover, in assay [3], the “BMM IC50 R (RANTES)” value was “C”.
